Results: patent US11040958B2, “Triazole antimicrobial derivative, pharmaceutical composition and use thereof” (priority 2017, dated 2021)
Where two headings read alike, the source gives them in different places.

Legend:
[1] = Solubility test in deionized water (HPLC, external calibration); type: physicochemical
Procedure: Experimental condition: 25±2° C.
Dissolving medium: deionized water
Experimental method: 1 mg voriconazole and appropriate amount of each compound were weighed, placed in 1 ml deionized water separately, shaken vigorously for 30 s every 5 mins for 30 mins.

[2] = In vitro metabolic stability in human plasma; type: in vitro ADME; conditions: 37°C, compound 10 μM
Procedure: (§1) The two reaction systems were set up three samples in parallel, while each sample was taken in an amount of 100 μL at 1 min, 2 mins, 5 mins, 15 mins, and 30 mins after the reaction, added to the centrifuge tube containing 400 μL of 0° C. pre-cooled internal standard working fluid and terminated the reaction. The sample was mixed by vortex for 1 min, centrifuged at 10,000×g for 10 mins in a 4° C. pre-cooled high-speed centrifuge. The supernatant was taken for HPLC detection.

[3] = In vitro metabolic stability in human intestinal S9; type: in vitro ADME; conditions: 37°C, S9 1 mg/mL, compound 10 μM, NADPH regeneration system
Procedure: as §1, with “detection. […] Concentration of mother liquor of compounds: 1 mM […] [table]” for “detection.”

[4] = In vitro metabolic stability in rat plasma; type: in vitro ADME; conditions: 37°C, compound 10 μM
Procedure: as §1, with “detection. […] Concentration of mother liquor of compounds: 1 mM […]” for “detection.”

[5] = In vitro metabolic stability in rat intestinal S9; type: in vitro ADME; conditions: 37°C, S9 1 mg/mL, compound 10 μM, NADPH regeneration system
Procedure: as §1, with “detection. […] Concentration of mother liquor of compounds: 1 mM […] [table]” for “detection.”

[6] = Solid stability test (25°C, RH 60%, 30 days); type: physicochemical; conditions: 25°C±2°C, relative humidity 60%±2%
Procedure: Experimental conditions: 25° C.±2° C., relative humidity 60%±2%
Experimental instrument: Agilent 1260 HPLC; chamber for stability test
Experimental method: each compound of the present disclosure was packaged (the inner packaging material was a penicillin bottle; the outer packaging material was a double-layer aluminum foil bag, and a desiccant was added inside and outside the package), placed in the chamber for stability test, at a temperature of 25° C.±2° C. and a relative humidity of 60%±2%. The degradation situation of the compounds for 30 days was examined. The contents of total impurities before and after 30 days of each compound were compared and the results were as follows: […]

[7] = Pharmacokinetics after single gastrointestinal (gavage) administration in rats (plasma voriconazole); type: in vivo; conditions: SD rats, 2.5 mg/kg (calculated as voriconazole)
Procedure: Dosing volume for administration: 10 ml/kg
Solvent medium for administration: except for the positive voriconazole group using CMC-Na, the other groups using normal saline
Route of administration: gavage

[8] = system: Candida albicans ATCC10231; experiment: Systemic fungal infection in mice, administration by gavage, survival; type: in vivo; conditions: ICR mice, 5 mg/kg (calculated as voriconazole) once daily for 5 days
Procedure: ICR mice, weighing 18-22 g, male, provided by the Hubei Experimental Animal Center.
The standard strain Candida albicans was purchased from the American Type Culture Collection, and the strain number was ATCC10231.
Before the experiment, a small amount of Candida albicans was picked from the SDA medium preserved at 4° C. by inoculation circle, inoculated into 1 ml of YPD culture medium, and cultured at 30° C. while being shaken at 200 rpm for 16 hours to make the fungus in the late stage of exponential growth. Blood cell counting plate was used to count, and the concentration of the broth was adjusted to 1*10^3−5*10^3 CFU/ml with RPMI1640 medium. The Candida albicans monoclone on the SDA plate was picked, inoculated into 1 ml YPD medium, cultured at 35° C., 200 rpm for 16 hours to the late exponential growth phase, 1% of which was then inoculated in fresh medium for 6 hours, centrifuged at 1000×g for 5 mins, washed three times with saline until the supernatant was colorless, while hemocytometer was used to count. The cell concentration was adjusted to 5*10^6/ml. The tail vein injection of 0.1 ml/10 g was carried out to cause a systemic fungal infection in mice. The mice were randomized into groups of 10 each. Voriconazole used was in the form of a suspension prepared with CMC-Na (Shanghai Panhong Chemical Technology Co., Ltd.), while other tested drugs were dissolved in saline and sonicated until clarified for administration. After establishing a systemic fungal infection model in mice for 2 hours, each group was administered by gavage with 5 mg/kg (calculated as voriconazole) drug, with the volume for administration of 0.1 ml/10 g. The mice in the model group were administered 0.1 ml/10 g of 0.9% sodium chloride solution, once daily, for 5 consecutive days. The death situation of the mice was inspected and the survival time was recorded. After a total of 7 days of observation, all dead mice were treated with fire using ethanol.

[9] = Pharmacokinetics after single intravenous administration in rats (plasma voriconazole)
Method in brief: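 SD rats (180–220 g, 3 male/3 female per group) given single tail-vein dose of 2.5 mg/kg (as voriconazole). Plasma voriconazole measured in blood sampled at multiple time points post-dose.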

[10] = system: Candida albicans ATCC10231; experiment: Systemic fungal infection in mice, intravenous administration, survival; type: in vivo; conditions: ICR mice, tail vein, 5 mg/kg (calculated as voriconazole) once daily for 5 days
Method in brief: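 Male ICR mice (18-22 g) infected via tail vein with C. albicans ATCC10231 at 5*10^6 cells/ml, 0.1 ml/10 g; groups of 10. From 2 h post-infection, 5 mg/kg (as voriconazole) given i.v. once daily for 5 days, saline vehicle (voriconazole in sulfobutyl ether-β-cyclodextrin); survival time recorded over 7 days.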

[11] = voriconazole in plasma, SD rats, tail vein injection, 2.5 mg/kg (calculated as voriconazole)

SMILES	Solubility ([1]; deionized water, 25±2°C) [mg/mL]	Human plasma T1/2 [2] [min]	Human intestinal S9 T1/2 [3] [min]	Rat plasma T1/2 [4] [min]	Rat intestinal S9 T1/2 [5] [min]	Content increase of total impurity (25° C., placed for 30 days) [6] [%]	AUClast [7] [ng·h/mL]	Cmax [7] [ng/mL]	T1/2 [7] [min]	survival rate of mice, day 1 [8] [%]	survival rate of mice, day 2 [8] [%]	survival rate of mice, day 3 [8] [%]	survival rate of mice, day 4 [8] [%]	survival rate of mice, day 5 [8] [%]	survival rate of mice, day 6 [8] [%]	survival rate of mice, day 7 [8] [%]	further results
CC(OC(=O)N(C)c1ncccc1COC(=O)[C@@H](N)CCCN)[n+]1cnn(C[C@](O)(c2ccc(F)cc2F)[C@@H](C)c2ncncc2F)c1.Cl.Cl.Cl.[Br-] (stereo partly drawn) [QR16008]	>50	9.49 ± 1.31	30.25 ± 4.90	10.58 ± 2.95	32.52 ± 7.82	1.05	8745 ± 2365	825 ± 256	159 ± 34.8	100	100	100	100	90	80	80	
CC(OC(=O)N(C)c1ncccc1COC(=O)[C@@H](N)CCCCN)[n+]1cnn(C[C@](O)(c2ccc(F)cc2F)[C@@H](C)c2ncncc2F)c1.[Cl-] (stereo partly drawn) [QR16017]		0.95 ± 0.28	11.25 ± 2.21	0.78 ± 0.86	15.69 ± 6.95		8695 ± 2958	952 ± 421	177 ± 75	100	100	90	90	90	90	80	Solubility [1]: >50 mg/mL; AUClast [9, 11]: 10259 ± 3285 ng·h/mL; T1/2 [9, 11]: 167 ± 45 min; survival rate of mice, day 1 ([10]; day 1): 100%; survival rate of mice, day 2 ([10]; day 2): 100%; survival rate of mice, day 3 ([10]; day 3): 100%; survival rate of mice, day 4 ([10]; day 4): 100%; survival rate of mice, day 5 ([10]; day 5): 100%; survival rate of mice, day 6 ([10]; day 6): 100%
CC(OC(=O)N(C)c1ncccc1COC(=O)CN(C)C)[n+]1cnn(C[C@](O)(c2ccc(F)cc2F)[C@@H](C)c2ncncc2F)c1.Cl.Cl.[Cl-] (stereo partly drawn) [QR16045]	>50	8.95 ± 0.12	32.97 ± 8.45	8.88 ± 0.55	27.85 ± 6.58	2.23	7859 ± 2256	562 ± 158	155 ± 52.8	100	100	90	90	90	90	80	AUClast ([9]; rat, in vivo, 2.5 mg/kg): 8586 ± 1856 ng·h/mL; T1/2 ([9]; rat, in vivo, 2.5 mg/kg): 164 ± 46.8 min
